{"source": "patent US4661495A", "about": "“Arphamenine-related compounds useful for potentiating the immune response in a living animal” (Zaidan Hojin Biseibutsu Kagaku Kenkyu Kai, priority 1984, dated 1987)", "key": {"[1]": {"test_system": "ICR-strain mice", "test": "Toxicity after intraperitoneal administration", "format": "in vivo", "conditions": "100 mg/Kg intraperitoneally, ICR-strain mice (male, 5 weeks-aged)"}, "[2]": {"test_system": "D.T.H. response with sheep red blood cells", "test": "effect on cell-mediated or cellular immunity: Delayed Type Hypersensitivity (D.T.H.) with sheep red blood cells", "format": "in vivo, CDF1-mouse", "conditions": "oral, 24 hours after challenge, * P < 0.05", "procedure": "(2) The effect on cell-mediated or cellular immunity:\nThe effect of the new arphamenine-related compounds on cell-mediated or cellular immunity was evaluated by measuring Delayed Type Hypersensitivity (D.T.H.) using mice which received sheep red blood cell inoculated as antigen into the footpad of mice for immunization (see P. H. Lagrange, G. B. Mackaness and T. E. Miller: \"J. Exp. Med.\", 139, 1529-1539 (1974)).\nA suspension of 10^8 sheep red blood cells (SRBC) in 0.05 ml of physiological saline was subcutaneously injected into one footpad of each CDF1 -mouse (female, 8 weeks-aged, 5 mice in each group) for immunization. Simultaneously, the mouse under test was given orally the test compound at a dosage of 5 mg/Kg, 0.5 mg/Kg or 0.05 mg/Kg as a solution of the test compound which was prepared by dissolving the test compound in physiological saline and then filtering the resulting solution by a millipore filter. On 4 days after the administration of the test compound, 10^8 sheep red blood cells were subcutaneously injected into another footpad of each test mouse for secondary challenge of the D.T.H. response. 24 Hours after the challenge, the thickness of the footpads was measured with calipers. Concurrently, the thickness of footpad of control mice which had received the injection of SRBC and physiological saline without the administration of the test compound was also measured in each mouse.\nThe effect of the test compound on the DTH response was evaluated by a percentage of increase in footpad thickness as calculated according to the following equation: [formula]"}, "[3]": {"molecular_target": "T1, carboxypeptidase A (Bos taurus, UniProt P00730)", "T1 construct": "purchased Sigma Co. Type 1; host or cells: bovine pancreas", "T1 sequence (P00730 111-417 limits assumed)": "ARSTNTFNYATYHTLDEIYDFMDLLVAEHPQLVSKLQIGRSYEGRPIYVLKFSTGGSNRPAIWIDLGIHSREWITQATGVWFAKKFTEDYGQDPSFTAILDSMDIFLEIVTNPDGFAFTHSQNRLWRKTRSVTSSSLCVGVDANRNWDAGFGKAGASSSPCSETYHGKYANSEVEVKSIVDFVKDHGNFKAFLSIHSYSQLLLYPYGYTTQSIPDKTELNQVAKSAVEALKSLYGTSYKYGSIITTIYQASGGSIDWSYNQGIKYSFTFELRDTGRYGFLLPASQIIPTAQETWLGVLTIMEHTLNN", "test": "inhibitory activity of the compounds to carboxypeptidase A", "format": "biochemical, bovine", "conditions": "hippuryl-L-phenylalanine substrate, pH 7.5, 37° C., 30 minutes; read-out: IC50 (50% Inhibition Concentration) (converted)", "procedure": "(1) Method of testing the inhibitory activity of the compounds to carboxypeptidase A: The carboxypeptidase A-inhibitory activity was determined according to a modification of the method of Hayakari et al. (M. Hayakari et al., \"Analytical Biochemistry\" 84, 361-369, 1978). Thus, a mixture of 0.05 ml of a solution of 10 mM hippuryl-L-phenylalanine (as substrate), 0.25 ml of 0.05 M Tris-hydrochloride buffer (pH 7.5) containing 0.9 M NaCl and 0.15 ml of a solution containing a test compound as produced in Example 1, 2, 3 or 4 shown hereinafter was heated at 37° C. for 3 minutes. To said mixture was then added 0.05 ml of a carboxypeptidase A (Type 1, as extracted from bovine pancreas, a product of Sigma Co.), and the enzymatic reaction was effected at 37° C. for 30 minutes. The reaction solution was admixed with 0.03 ml of aqueous 1N sodium hydroxide to stop the reaction. After allowing to stand at ambient temperature for 15 minutes, the reaction solution was admixed with 2 ml of 0.06 M phosphate buffer (pH 7.2) and with 2 ml of a solution of 1% cyanuric chloride in ethylene glycol monomethylester. After the reaction solution was allowed to stand at ambient temperature for 5 minutes, absorbance (a) at 382 nm of the reaction solution was measured. For the blank test, the above procedure was repeated using said buffer solutions without the test compound, and the absorbance (b) was measured in the blank test. The percentage for inhibition to carboxypeptidase A was calculated according to the equation: [formula] On the basis of the values of percentages of inhibition measured by the above procedure, 50% Inhibition Concentration (IC50) was evaluated."}, "[4]": {"test_system": "immune response", "conditions": "earlier publications/filings; cited from earlier work"}, "[5]": {"test_system": "tumor", "conditions": "earlier filings; cited from earlier work"}, "[6]": {"test_system": "carboxypeptidase", "conditions": "J. Antibiot., 37, 682 (1984); cited from earlier work"}}, "data": [{"compound": "Cc1cc(C)nc(NCCCC(NC(=O)c2ccccc2)C(=O)CC(Cc2ccccc2)C(=O)O)n1", "note": "(centres unmarked) [Example 1 (b), 5-benzoylamino-8-[(4,6-dimethylpyrimidin-2-yl)amino]-4-oxo-2-phenylmethyloctanoic acid]", "values": [{"measurement": "death", "setting": "[1]", "result": "no death"}, {"measurement": "Percentage of increase in footpad thickness", "setting": "[2]; 0.05 mg/Kg", "result": 107, "unit": "Percentage"}, {"measurement": "Percentage of increase in footpad thickness", "setting": "[2]; 0.5 mg/Kg", "result": 121, "unit": "Percentage"}, {"measurement": "Percentage of increase in footpad thickness", "setting": "[2]; 5 mg/Kg", "result": 128, "unit": "Percentage"}, {"measurement": "IC50", "setting": "[3]", "result": 40.9, "unit": "nM"}]}, {"compound": "Cc1cc(C)nc(NCCCC(NC(=O)c2ccccc2)C(=O)CC(Cc2ccc(O)cc2)C(=O)O)n1", "note": "(centres unmarked) [Example 2 (b), 5-benzoylamino-8-[(4,6-dimethylpyrimidin-2-yl)amino]-2-(4'-hydroxyphenylmethyl)-4-oxo-octanoic acid]", "values": [{"measurement": "death", "setting": "[1]", "result": "no death"}, {"measurement": "Percentage of increase in footpad thickness", "setting": "[2]; 0.05 mg/Kg", "result": 113, "unit": "Percentage"}, {"measurement": "Percentage of increase in footpad thickness", "setting": "[2]; 0.5 mg/Kg", "result": 130, "unit": "Percentage"}, {"measurement": "Percentage of increase in footpad thickness", "setting": "[2]; 5 mg/Kg", "result": 144, "unit": "Percentage"}, {"measurement": "IC50", "setting": "[3]", "result": 17.4, "unit": "nM"}]}, {"compound": "Cc1cc(C)nc(NCCCC(NC(=O)OCc2ccccc2)C(=O)CC(Cc2ccccc2)C(=O)O)n1", "note": "(centres unmarked) [Example 3 (b), 5-benzyloxycarbonylamino-8-[(4,6-dimethylpyrimidin-2-yl)amino]-4-oxo-2-phenylmethyloctanoic acid]", "values": [{"measurement": "death", "setting": "[1]", "result": "no death"}, {"measurement": "Percentage of increase in footpad thickness", "setting": "[2]; 0.05 mg/Kg", "result": 110, "unit": "Percentage"}, {"measurement": "Percentage of increase in footpad thickness", "setting": "[2]; 0.5 mg/Kg", "result": 120, "unit": "Percentage"}, {"measurement": "Percentage of increase in footpad thickness", "setting": "[2]; 5 mg/Kg", "result": 136, "unit": "Percentage"}, {"measurement": "IC50", "setting": "[3]", "result": 123, "unit": "nM"}]}, {"compound": "Cc1cc(C)nc(NCCCC(NC(=O)OCc2ccccc2)C(=O)CC(Cc2ccc(O)cc2)C(=O)O)n1", "note": "(centres unmarked) [Example 4 (b), 5-benzyloxycarbonylamino-8-[(4,6-dimethylpyrimidin-2-yl)amino]-2-(4'-hydroxyphenylmethyl)-4-oxo-octanoic acid]", "values": [{"measurement": "death", "setting": "[1]", "result": "no death"}, {"measurement": "Percentage of increase in footpad thickness", "setting": "[2]; 0.05 mg/Kg", "result": 110, "unit": "Percentage"}, {"measurement": "Percentage of increase in footpad thickness", "setting": "[2]; 0.5 mg/Kg", "result": 123, "unit": "Percentage"}, {"measurement": "Percentage of increase in footpad thickness", "setting": "[2]; 5 mg/Kg", "result": 145, "unit": "Percentage"}, {"measurement": "IC50", "setting": "[3]", "result": 655, "unit": "nM"}]}, {"compound": "N=C(N)NCCCC(N)C(=O)CC(Cc1ccccc1)C(=O)O", "note": "(centres unmarked) [arphamenine A]", "values": [{"measurement": "immunopotentiating activity", "setting": "[4]", "result": "immunopotentiating activity"}, {"measurement": "antitumor activity", "setting": "[5]", "result": "antitumor activity"}]}, {"compound": "N=C(N)NCCCC(N)C(=O)CC(Cc1ccc(O)cc1)C(=O)O", "note": "(centres unmarked) [arphamenine B]", "values": [{"measurement": "immunopotentiating activity", "setting": "[4]", "result": "immunopotentiating activity"}, {"measurement": "antitumor activity", "setting": "[5]", "result": "antitumor activity"}]}, {"compound": "benzylmalic acid", "values": [{"measurement": "immunopotentiating activity", "setting": "[4]", "result": "shows an immunopotentiating activity"}, {"measurement": "carboxypeptidase-inhibitory activity", "setting": "[6]", "result": "having a carboxypeptidase-inhibitory activity"}]}]}
